Measured values published in patent US10314806B2 (SICHUAN JIUZHANG BIOLOGICAL SCIENCE AND TECHNOLOGY CO., LTD., priority 2014, dated 2019).

Experiments:
human brain glioma = experiment: Inhibition of mice-transplanted human brain glioma; format: in vivo; conditions: for Inhibitmy rate / Tumor weight: 15 days, mice
Protocol: Human brain glioma cell lines were obtained from Key Laboratory of Transplant Engineering and Immunology, Ministry of health, West China Hospital, Sichuan University.
(1) Model establishment Mice were divided into groups, 10 mice for each group. The solution of brain glioblastoma cell lines was suitably diluted, and inoculated in cortex of left temporal lobe of mice, respectively.
Administration and intervention 24 h after inoculation, mice in each group were administrated by intraperitoneal injection. […] Each group was administrated for successive 15 days.
Determination of tumor inhibitory rate On the last day, the administration was stopped, and all mice were sacrificed and dissected. Tumor tissues were stripped and weighed. Tumor inhibitory rate %=(The mean tumor weight of control group−The mean tumor weight of drug groups)[The mean tumor weight of control group]×100%.
Statistical method The variance analysis of data was performed using the statistical program software package (SPSS13.0 for Windows), and p<0.05 was considered to be a statistically significant difference.

[1] = test system: chemical liver injury (rat alcoholic fatty liver model); experiment: Protective effect on chemical liver injury (rat alcoholic fatty liver model); format: in vivo, rats; conditions: for GSH / SOD / AST / MDA / ALT: 30 days; for GSH / SOD / MDA: liver homogenate; for AST / ALT: serum
Protocol: Experimental grouping and dose design: Female SD rats were randomly divided to groups, 10 rats for each group, […], 70 mg·kg^−1, 85 mg·kg^−1, 100 mg·kg^−1, 120 mg·kg^−1, 140 mg·kg^−1, 160 mg·kg^−1, 180 mg·kg^−1, […], together with a negative control group and 50% ethanol model control group. Liver injury model was induced by ethanol (analytical pure).
Determination of ALT, AST, TG in serum of rats; Determination of SOD, MDA, reduced glutathione (GSH) in liver homogenate.
Statistics of experimental data: Statistical analysis of experimental data was performed using software package of SPSS 19.0 for windows.

[2] = 1 mg·kg^−1 intraperitoneal injection
[3] = 5 mg·kg^−1 intraperitoneal injection
[4] = 10 mg·kg^−1 intraperitoneal injection
[5] = 30 mg·kg^−1 intraperitoneal injection
[6] = 40 mg·kg^−1 intraperitoneal injection
[7] = 50 mg·kg^−1 intraperitoneal injection
[8] = 60 mg·kg^−1 intraperitoneal injection
[9] = 70 mg·kg^−1 intraperitoneal injection
[10] = 90 mg·kg^−1 intraperitoneal injection
[11] = 100 mg·kg^−1 intraperitoneal injection

O=C(/C=C/c1ccc(O)c(O)c1)O[C@@H]1C[C@](O)(C(=O)O)C[C@@H](O)[C@H]1O [Chlorogenic acid of the present invention]
Inhibitmy rate (human brain glioma; [2]): 13.30%
Tumor weight (human brain glioma; [2]): 1.258 ± 0.254 g
Inhibitmy rate (human brain glioma; [3]): 16.06%
Tumor weight (human brain glioma; [3]): 1.218 ± 0.187 g
Inhibitmy rate (human brain glioma; [4]): 52.45%
Tumor weight (human brain glioma; [4]): 0.690 ± 0.128 g
Inhibitmy rate (human brain glioma; 20 mg·kg^−1 intraperitoneal injection): 70.71%
Inhibitmy rate (human brain glioma; [5]): 68.57%
Tumor weight (human brain glioma; [5]): 0.456 ± 0.128 g
Inhibitmy rate (human brain glioma; [6]): 62.03%
Tumor weight (human brain glioma; [6]): 0.551 ± 0.087 g
Inhibitmy rate (human brain glioma; [7]): 56.65%
Tumor weight (human brain glioma; [7]): 0.629 ± 0.068 g
Inhibitmy rate (human brain glioma; [8]): 51.69%
Tumor weight (human brain glioma; [8]): 0.701 ± 0.256 g
Inhibitmy rate (human brain glioma; [9]): 31.22%
Tumor weight (human brain glioma; [9]): 0.998 ± 0.212 g
Inhibitmy rate (human brain glioma; 80 mg·kg^−1 intraperitoneal injection): 18.06%
Inhibitmy rate (human brain glioma; [10]): 13.23%
Tumor weight (human brain glioma; [10]): 1.259 ± 0.124 g
Inhibitmy rate (human brain glioma; [11]): 8.27%
Tumor weight (human brain glioma; [11]): 1.331 ± 0.156 g
inhibitory action on mice-transplanted tumor of human brain glioma (human brain glioma; compared with the negative control group, obvious in the dosage groups of 10 mg/kg-60 mg/kg): obviously inhibitory action
GSH ([1]; 10 mg·kg^−1 intragastric): 13.02 ± 1.23 mg/g
SOD ([1]; 10 mg·kg^−1 intragastric): 28.12 ± 3.25 nmol/mg
AST ([1]; 10 mg·kg^−1 intragastric): 189.54 ± 4.87 U/L
GSH ([1]; 20 mg·kg^−1 intragastric): 18.98 ± 2.14 mg/g
MDA ([1]; 20 mg·kg^−1 intragastric): 5.15 ± 0.21 U/mg
SOD ([1]; 20 mg·kg^−1 intragastric): 36.45 ± 2.47 nmol/mg
AST ([1]; 20 mg·kg^−1 intragastric): 178.54 ± 6.15 U/L
GSH ([1]; 35 mg·kg^−1 intragastric): 19.21 ± 1.45 mg/g
MDA ([1]; 35 mg·kg^−1 intragastric): 5.14 ± 0.47 U/mg
SOD ([1]; 35 mg·kg^−1 intragastric): 37.27 ± 3.25 nmol/mg
AST ([1]; 35 mg·kg^−1 intragastric): 168.54 ± 4.31 U/L
GSH ([1]; 50 mg·kg^−1 intragastric): 22.14 ± 2.41 mg/g
MDA ([1]; 50 mg·kg^−1 intragastric): 4.12 ± 0.65 U/mg
SOD ([1]; 50 mg·kg^−1 intragastric): 38.24 ± 2.75 nmol/mg
ALT ([1]; 50 mg·kg^−1 intragastric): 40.12 ± 3.15 U/L
AST ([1]; 50 mg·kg^−1 intragastric): 139.21 ± 5.14 U/L
GSH ([1]; 70 mg·kg^−1 intragastric): 22.87 ± 2.47 mg/g
MDA ([1]; 70 mg·kg^−1 intragastric): 4.56 ± 0.78 U/mg
SOD ([1]; 70 mg·kg^−1 intragastric): 38.75 ± 3.21 nmol/mg
ALT ([1]; 70 mg·kg^−1 intragastric): 38.48 ± 2.47 U/L
AST ([1]; 70 mg·kg^−1 intragastric): 127.54 ± 6.54 U/L
GSH ([1]; 85 mg·kg^−1 intragastric): 23.01 ± 1.58 mg/g
MDA ([1]; 85 mg·kg^−1 intragastric): 4.32 ± 0.46 U/mg
SOD ([1]; 85 mg·kg^−1 intragastric): 40.14 ± 6.12 nmol/mg
ALT ([1]; 85 mg·kg^−1 intragastric): 35.47 ± 2.46 U/L
AST ([1]; 85 mg·kg^−1 intragastric): 119.25 ± 6.89 U/L
GSH ([1]; 100 mg·kg^−1 intragastric): 23.48 ± 1.78 mg/g
MDA ([1]; 100 mg·kg^−1 intragastric): 4.08 ± 0.85 U/mg
SOD ([1]; 100 mg·kg^−1 intragastric): 41.56 ± 4.32 nmol/mg
ALT ([1]; 100 mg·kg^−1 intragastric): 33.14 ± 1.89 U/L
AST ([1]; 100 mg·kg^−1 intragastric): 126.89 ± 4.21 U/L
GSH ([1]; 120 mg·kg^−1 intragastric): 23.98 ± 2.14 mg/g
MDA ([1]; 120 mg·kg^−1 intragastric): 3.89 ± 0.42 U/mg
SOD ([1]; 120 mg·kg^−1 intragastric): 42.87 ± 3.15 nmol/mg
ALT ([1]; 120 mg·kg^−1 intragastric): 39.85 ± 2.41 U/L
AST ([1]; 120 mg·kg^−1 intragastric): 138.84 ± 5.15 U/L
GSH ([1]; 140 mg·kg^−1 intragastric): 24.35 ± 1.58 mg/g
MDA ([1]; 140 mg·kg^−1 intragastric): 3.57 ± 0.64 U/mg
SOD ([1]; 140 mg·kg^−1 intragastric): 44.78 ± 2.31 nmol/mg
ALT ([1]; 140 mg·kg^−1 intragastric): 40.08 ± 2.78 U/L
AST ([1]; 140 mg·kg^−1 intragastric): 140.54 ± 6.12 U/L
GSH ([1]; 160 mg·kg^−1 intragastric): 20.01 ± 1.47 mg/g
MDA ([1]; 160 mg·kg^−1 intragastric): 4.05 ± 0.25 U/mg
SOD ([1]; 160 mg·kg^−1 intragastric): 38.56 ± 2.45 nmol/mg
AST ([1]; 160 mg·kg^−1 intragastric): 157.98 ± 5.27 U/L
GSH ([1]; 180 mg·kg^−1 intragastric): 19.87 ± 2.84 mg/g
MDA ([1]; 180 mg·kg^−1 intragastric): 4.98 ± 0.87 U/mg
SOD ([1]; 180 mg·kg^−1 intragastric): 37.25 ± 4.27 nmol/mg
AST ([1]; 180 mg·kg^−1 intragastric): 168.12 ± 4.89 U/L
GSH ([1]; 200 mg·kg^−1 intragastric): 19.01 ± 1.58 mg/g
MDA ([1]; 200 mg·kg^−1 intragastric): 5.45 ± 0.24 U/mg
SOD ([1]; 200 mg·kg^−1 intragastric): 36.25 ± 2.87 nmol/mg
AST ([1]; 200 mg·kg^−1 intragastric): 177.56 ± 4.25 U/L
GSH ([1]; 220 mg·kg^−1 intragastric): 17.24 ± 1.89 mg/g
SOD ([1]; 220 mg·kg^−1 intragastric): 30.12 ± 2.14 nmol/mg
AST ([1]; 220 mg·kg^−1 intragastric): 189.98 ± 5.67 U/L
inhibitory action on chemical liver injury ([1]; dosage of 50 mg/kg-140 mg/kg had the most obvious effect): obviously inhibitory action
